Assay results taken from PMC4476799, “Englerin A Agonizes the TRPC4/C5 Cation Channels to Inhibit Tumor Cell Line Proliferation” (PLoS ONE, 2015).
Like-named read-outs stand apart in the source and are kept apart here.

System: cancer cell lines from the cancer cell line encyclopedia (CCLE)
Test: Cell line profiling (CLiP) proliferation experiment
Assay type: cell-based
Details: Homo sapiens; for IC50: read-out: Crossing Point; for EC50: read-out: Inflection Point
Experimental: Compound profiling experiment and data analysis was performed as previously described. Data was imported and plotted using the Tibco Spotfire DXP application. Lines were categorized as sensitive, intermediate and refractory as follows: Amax<-40 & Inflection Point <2 ~ Sensitive, Amax>-20 & Inflection Point >10 ~ Refractory, all else were called Intermediate. Cancer Cell line HG-U133 Plus 2 data was processed and normalized as described. […] Five sets of refractory cell lines were generated from the pool of refractory cell lines trying to match the lineage composition of the set of sensitive cell lines. The limma package was used as previously described to perform the statistical comparison.

[1] = CHP-212, CHP-212, autonomic_ganglia, NS
[2] = COLO 205, COLO 205, large_intestine, adenocarcinoma
[3] = COLO-668, COLO 668, lung, small_cell_carcinoma
[4] = COR-L279, COR-L279, lung, small_cell_carcinoma
[5] = Calu-6, Calu-6, lung, undifferentiated_carcinoma
[6] = DMS-114, DMS 114, lung, small_cell_carcinoma
[7] = DMS-273, DMS 273, lung, small_cell_carcinoma
[8] = DOHH-2, cell line DOHH-2, haematopoietic_and_lymphoid_tissue
[9] = EFM-19, cell line EFM-19, breast
[10] = FaDu, cell line FaDu, upper_aerodigestive_tract
[11] = G-401, cell line G-401, soft_tissue
[12] = HCC1143, cell line HCC1143, breast

Structure (SMILES): CC(C)[C@@]12C[C@@H](O)[C@@](C)(O1)[C@@H]1CC[C@@H](C)[C@H]1[C@@H]2OC(=O)/C=C/c1ccccc1 [Englerin B]
- IC50 (CHL-1, CHL-1, skin, NS): 26.2 µM
- IC50 (CHL-1, CHL-1 cells): 26.2 µM
- IC50 [1]: 22.7 µM
- EC50 [1]: 13.9 µM
- EC50 (CHP-212, CHP-212 cells): 13.9 µM
- IC50 (CMK, CMK cells): > 30 µM
- IC50 [2]: 16.5 µM
- EC50 [2]: 11.8 µM
- EC50 (COLO 205, COLO 205 cells): 11.8 µM
- IC50 (COLO 320, COLO-320, large_intestine, adenocarcinoma): 11 µM
- IC50 [3]: 26 µM
- EC50 [3]: 26 µM
- IC50 (COLO-668, COLO 668 cells): 26 µM
- EC50 (COLO-668, COLO 668 cells): 26 µM
- IC50 (COLO-680N, COLO-680N (oesophagus)): > 30 µM
- IC50 (COLO-680N, oesophagus, squamous_cell_carcinoma): > 30 µM
- IC50 (COLO-741, COLO 741, skin, NS): > 30 µM
- EC50 (COLO-741, COLO 741, skin, NS): 11.6 µM
- IC50 (COLO-741, COLO 741 cells): > 30 µM
- EC50 (COLO-741, COLO 741 cells): 11.6 µM
- IC50 (COLO-800, COLO-800, skin, NS): > 30 µM
- IC50 (COLO-800, cell line COLO-800 (skin, NS)): > 30 µM
- IC50 (COLO-829, COLO 829, skin, NS): > 30 µM
- IC50 (COLO-829, COLO 829 cells): > 30 µM
- IC50 (COR-L23, COR-L23 (lung)): > 30 µM
- IC50 (COR-L23, COR-L23, lung, large_cell_carcinoma): > 30 µM
- IC50 (COR-L47, COR-L47, lung, small_cell_carcinoma): > 30 µM
- IC50 (COR-L47, COR-L47 cells): > 30 µM
- IC50 (COR-L88, COR-L88 (lung)): > 30 µM
- IC50 (COR-L88, COR-L88, lung, small_cell_carcinoma): > 30 µM
- IC50 [4]: 6.69 µM
- EC50 [4]: 6.69 µM
- IC50 (Calu-1, Calu-1, lung, squamous_cell_carcinoma): > 30 µM
- IC50 (Calu-1, cell line Calu-1): > 30 µM
- IC50 (Calu-3, Calu-3 (lung)): > 30 µM
- IC50 (Calu-3, Calu-3, lung, adenocarcinoma): > 30 µM
- IC50 [5]: > 30 µM
- EC50 [5]: 11.6 µM
- IC50 (Calu-6, Calu-6 cells): > 30 µM
- EC50 (Calu-6, Calu-6 cells): 11.6 µM
- IC50 (Caov-3, Caov-3, ovary, adenocarcinoma): 15.3 µM
- IC50 (DBTRG-05MG, cell line DBTRG-05MG (central_nervous_system, astrocytoma_Grade_IV)): > 30 µM
- IC50 (DBTRG-05MG, central_nervous_system, astrocytoma_Grade_IV): > 30 µM
- IC50 (DLD-1, DLD-1, large_intestine, adenocarcinoma): 21.7 µM
- IC50 (DMS-79, DMS 79 (lung)): > 30 µM
- IC50 (DMS-79, cell line DMS 79, lung): > 30 µM
- IC50 [6]: 17.5 µM
- EC50 [6]: 11.7 µM
- IC50 (DMS-114, cell line DMS 114): 17.5 µM
- IC50 [7]: 16.4 µM
- EC50 [7]: 13.7 µM
- IC50 [8]: 13.1 µM
- EC50 [8]: 12.9 µM
- IC50 (DU-145, cell line DU 145, prostate): 8.94 µM
- IC50 (DV-90, cell line DV-90, lung): 18 µM
- EC50 (DV-90, cell line DV-90, lung): 14.9 µM
- IC50 (Daoy, Daoy (central_nervous_system)): > 30 µM
- IC50 (Daoy, central_nervous_system, NS): > 30 µM
- IC50 (Detroit 562, Detroit 562, upper_aerodigestive_tract, NS): > 30 µM
- IC50 (Detroit 562, cell line Detroit 562): > 30 µM
- IC50 (EBC-1, cell line EBC-1, lung): 24 µM
- EC50 (EBC-1, cell line EBC-1, lung): 11.6 µM
- IC50 (EFM-19, cell line EFM-19 (breast, ductal_carcinoma)): > 30 µM
- IC50 [9]: > 30 µM
- EC50 [9]: 7.15 µM
- IC50 (EOL1, cell line EOL-1, haematopoietic_and_lymphoid_tissue): 11.8 µM
- IC50 (ESS-1, cell line ESS-1, endometrium): 18.7 µM
- IC50 [10]: 17.8 µM
- EC50 [10]: 12.9 µM
- IC50 (G-361, cell line G-361, skin): > 30 µM
- IC50 (G-361, cell line G-361): > 30 µM
- IC50 [11]: 14.3 µM
- EC50 [11]: 11.9 µM
- EC50 (G-401, cell line G-401): 11.9 µM
- IC50 (G-402, cell line G-402, soft_tissue): 9.9 µM
- IC50 (GA-10, cell line GA-10, haematopoietic_and_lymphoid_tissue): > 30 µM
- IC50 (GA-10, cell line GA-10): > 30 µM
- IC50 (GAMG, GAMG (central_nervous_system)): > 30 µM
- IC50 (GAMG, cell line GAMG, central_nervous_system): > 30 µM
- IC50 (GCIY, cell line GCIY, stomach): 15.8 µM
- IC50 (GMS-10, cell line GMS-10, central_nervous_system): > 30 µM
- IC50 (GMS-10, cell line GMS-10): > 30 µM
- IC50 (Granta-519, cell line GRANTA-519, haematopoietic_and_lymphoid_tissue): > 30 µM
- IC50 (Granta-519, cell line GRANTA-519): > 30 µM
- IC50 (HCC38, cell line HCC38, breast): > 30 µM
- IC50 (HCC38, cell line HCC38): > 30 µM
- IC50 (HCC44, cell line HCC-44, lung): 22.8 µM
- IC50 (HCC95, cell line HCC-95, lung): 27.6 µM
- EC50 (HCC95, cell line HCC-95, lung): 26.7 µM
- IC50 (HCC827, cell line HCC827, lung): 19.3 µM
- IC50 [12]: > 30 µM
- EC50 [12]: 9.85 µM
